# Test results as given in patent US20230348418A1, “ISOINDOLINONE COMPOUNDS” (Monte Rosa Therapeutics, Inc., priority 2021, published 2023).
# Like-named read-outs stand apart in the source and are kept apart here.
# Target: T1, Full length wild-type cereblon CRBN (Homo sapiens, UniProt Q96SW2)
# T1 construct: Full length wild-type cereblon CRBN (80.0 nM, 10 μL) was incubated in assay buffer
# Assay: Fluorescence polarization (FP) assay, cereblon binding
# From the text: Compound activity was monitored in a fluorescence polarization (FP) homogeneous assay using 1-[5-({2-[2-(2-{[2-(2,6-dioxopiperidin-3-yl)-1,3-dioxo-2,3-dihydro-1H-isoindol-4-yl]oxy}acetamido)ethoxy]ethyl}carbamoyl)pentyl]-3,3-dimethyl-2-[(1E,3E)-5-[(2E)-1,3,3-trimethyl-5-sulfo-2,3-dihydro-1H-indol-2-ylidene]penta-1,3-dien-1-yl]-3H-indol-1-ium-5-sulfonate as a fluorescent probe. Unless otherwise stated, all reagents were purchased from Sigma Aldrich. […] Full length wild-type cereblon CRBN (80.0 nM, 10 μL) was incubated in assay buffer containing 20 mM HEPES (pH 8.0), […], 0.5 mM TCEP and 0.05% Tween 20 in the presence or absence of compound (300 nL). Inhibitors were stored as 10 mM DMSO stocks in an inert environment (low humidity, dark, low oxygen, room temperature) using the Storage Pod System. […] Following incubation at room temperature for 30 min, the assay was initiated by dispensing the probe to a final concentration of […] (2.5 nL of a 20 μM stock) using the Echo E5XX. […] The FP signal was subsequently normalized to the no-compound control (i.e., DMSO). Analysis and IC50 values were derived using Dotmatics (Dotmatics UK) software.
# [1] = bounds stated in the text lists b2059-b2061, read-out: IC50 value
# [2] = cereblon binding, class code, read-out: rFP IC50
# [3] = IC50 value, bounds stated in the text lists b2059-b2061
# [4] = rFP IC50 [nM], cereblon binding, class code
# T1 sequence (Q96SW2 whole entry): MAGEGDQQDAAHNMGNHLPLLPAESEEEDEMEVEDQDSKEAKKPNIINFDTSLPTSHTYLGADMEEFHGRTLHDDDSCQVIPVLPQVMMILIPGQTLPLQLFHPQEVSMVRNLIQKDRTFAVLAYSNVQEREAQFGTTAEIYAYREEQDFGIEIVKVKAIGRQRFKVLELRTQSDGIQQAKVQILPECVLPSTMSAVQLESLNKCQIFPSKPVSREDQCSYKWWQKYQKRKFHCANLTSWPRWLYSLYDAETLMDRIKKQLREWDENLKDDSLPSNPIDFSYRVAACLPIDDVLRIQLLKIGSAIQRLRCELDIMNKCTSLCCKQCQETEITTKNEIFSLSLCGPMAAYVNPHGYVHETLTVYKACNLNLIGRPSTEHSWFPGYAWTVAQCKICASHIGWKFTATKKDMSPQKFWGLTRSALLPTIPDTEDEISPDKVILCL
SMILES,IC50 [1] [nM],IC50 [2] [nM],also measured
O=C1CCC(N2Cc3ccc(COC(=O)NC4CCCCC4)cc3C2=O)C(=O)N1 (stereo not shown) [Compound 28],< 1700,1100 to 1700,–
O=C1CCC(N2Cc3ccc(COC(=O)Nc4cnc5c(c4)CCC5)cc3C2=O)C(=O)N1 (stereo not shown) [Compound 53],< 1700,500 to 1100,–
O=C1CCC(N2Cc3ccc(COC(=O)Nc4cnc5c(c4)COCC5)cc3C2=O)C(=O)N1 (stereo not shown) [Compound 54],< 1100,–,–
CC1(c2ccc(NC(=O)OCc3ccc4c(c3)C(=O)N(C3CCC(=O)NC3=O)C4)cc2)CC1 (stereo not shown) [Compound 58],< 1700,500 to 1100,–
Cc1cc(C)cc(NC(=O)OCc2ccc3c(c2)C(=O)N(C2CCC(=O)NC2=O)C3)c1 (stereo not shown) [Compound 8],< 1700,500 to 1100,–
Cc1c(CN2CCOCC2)cc(NC(=O)OCc2ccc3c(c2)C(=O)N(C2CCC(=O)NC2=O)C3)cc1OC(F)F (stereo not shown) [Compound 25],< 1700,500 to 1100,–
O=C1CCC(N2Cc3ccc(COC(=O)Nc4ccc(N5CCCC5)nc4)cc3C2=O)C(=O)N1 (stereo not shown) [Compound 60],< 1100,–,–
Cc1c(F)cc(NC(=O)OCc2ccc3c(c2)C(=O)N(C2CCC(=O)NC2=O)C3)cc1CN1CCOCC1 (stereo not shown) [Compound 41],< 1700,500 to 1100,–
O=C1CCC(N2Cc3ccc(COC(=O)N4CCC(Oc5ccccc5)C4)cc3C2=O)C(=O)N1 (stereo not shown) [Compound 30],< 1100,–,–
Cc1cc(Cl)c(NC(=O)OCc2ccc3c(c2)C(=O)N(C2CCC(=O)NC2=O)C3)cc1Cl (stereo not shown) [Compound 119],–,–,IC50 [3]: < 1100 nM; IC50 [4]: 500 to 1100 nM
O=C1CCC(N2Cc3ccc(COC(=O)Nc4ccc5c(c4)CCO5)cc3C2=O)C(=O)N1 (stereo not shown) [Compound 66],< 1100,–,–
O=C1CCC(N2Cc3ccc(COC(=O)Nc4cnc(N5CCCCC5)c(F)c4)cc3C2=O)C(=O)N1 (stereo not shown) [Compound 72],< 1700,500 to 1100,–
Cc1ccc(OC(F)(F)F)cc1NC(=O)OCc1ccc2c(c1)C(=O)N(C1CCC(=O)NC1=O)C2 (stereo not shown) [Compound 128],–,–,IC50 [3]: < 1100 nM; IC50 [4]: 500 to 1100 nM
Cc1cc(NC(=O)OCc2ccc3c(c2)C(=O)N(C2CCC(=O)NC2=O)C3)cc(F)c1C (stereo not shown) [Compound 117],–,–,IC50 [3]: < 1100 nM; IC50 [4]: 500 to 1100 nM
O=C1CCC(N2Cc3ccc(COC(=O)Nc4ccc(N5CCOCC5)nc4)cc3C2=O)C(=O)N1 (stereo not shown) [Compound 76],< 1700,500 to 1100,–
Cc1c(Cl)cc(NC(=O)OCc2ccc3c(c2)C(=O)N(C2CCC(=O)NC2=O)C3)cc1CN1CC2CC1CO2 (stereo not shown) [Compound 13],< 1700,500 to 1100,–
CC1CCCCN1c1ccc(NC(=O)OCc2ccc3c(c2)C(=O)N(C2CCC(=O)NC2=O)C3)cn1 (stereo not shown) [Compound 77],< 1700,500 to 1100,–
O=C1CCC(N2Cc3ccc(COC(=O)Nc4ccc(N5CC6CCC(C5)O6)nc4)cc3C2=O)C(=O)N1 (stereo not shown) [Compound 65],< 1100,–,–
CCOc1cc(NC(=O)OCc2ccc3c(c2)C(=O)N(C2CCC(=O)NC2=O)C3)ccc1C (stereo not shown) [Compound 33],< 500,500 to 1100,–
O=C1CCC(N2Cc3ccc(COC(=O)Nc4ccc5c(c4)CC(F)(F)O5)cc3C2=O)C(=O)N1 (stereo not shown) [Compound 113],–,–,IC50 [3]: < 1100 nM
Cc1cc(NC(=O)OCc2ccc3c(c2)C(=O)N(C2CCC(=O)NC2=O)C3)cc(C)c1C#N (stereo not shown) [Compound 108],–,–,IC50 [3]: < 1100 nM
Cc1c(Cl)cc(NC(=O)OCc2ccc3c(c2)C(=O)N(C2CCC(=O)NC2=O)C3)cc1OCC1CCN(C)C1 (stereo not shown) [Compound 70],< 1100,–,–
CCc1cc(NC(=O)OCc2ccc3c(c2)C(=O)N(C2CCC(=O)NC2=O)C3)cc(C)n1 (stereo not shown) [Compound 71],< 1700,1100 to 1700,–
O=C1CCC(N2Cc3ccc(COC(=O)Nc4ccc(N5CCCCC5)nn4)cc3C2=O)C(=O)N1 (stereo not shown) [Compound 75],< 1100,–,–
O=C1CCC(N2Cc3ccc(COC(=O)Nc4ccc5c(c4)OC(F)(F)O5)cc3C2=O)C(=O)N1 (stereo not shown) [Compound 79],< 1700,1100 to 1700,–
"O=C1CCC(N2Cc3ccc(COC(=O)Nc4cc(OC(F)(F)F)ccc4F)cc3C2=O)C(=O)N1 (stereo not shown) [Compound 145, (2-(2,6-dioxopiperidin-3-yl)-3-oxoisoindolin-5-yl)methyl(2-fluoro-5-(trifluoromethoxy)phenyl)carbamate]",–,–,IC50 (IC50 value): < 1100 nM; IC50 (rFP IC50 [nM]): 500 to 1100 nM

# More lines, main results first:
IC50 [1] [nM],IC50 [2] [nM],SMILES,also measured
< 1700,1100 to 1700,COc1cc(NC(=O)OCc2ccc3c(c2)C(=O)N(C2CCC(=O)NC2=O)C3)cnc1-c1ccccc1 (stereo not shown) [Compound 90],–
< 1100,–,"CC1(c2ccc(NC(=O)OCc3ccc4c(c3)C(=O)N(C3CCC(=O)NC3=O)C4)cn2)CC1 (stereo not shown) [Compound 152, (2-(2,6-dioxopiperidin-3-yl)-3-oxoisoindolin-5-yl)methyl (6-(1-methylcyclopropyl)pyridin-3-yl)carbamate]",–
< 1700,500 to 1100,O=C1CCC(N2Cc3ccc(COC(=O)Nc4ccc(C5CCC5)nc4)cc3C2=O)C(=O)N1 (stereo not shown) [Compound 105],–
< 1100,500 to 1100,"CC(C)(C)c1ccc(NC(=O)OCc2ccc3c(c2)C(=O)N(C2CCC(=O)NC2=O)C3)nc1 (stereo not shown) [Compound 131, (2-(2,6-dioxopiperidin-3-yl)-3-oxoisoindolin-5-yl)methyl (5-(tert-butyl)pyridin-2-yl)carbamate]",–
< 1100,–,O=C1CCC(N2Cc3ccc(COC(=O)Nc4ccc(C5COC5)cc4)cc3C2=O)C(=O)N1 (stereo not shown) [Compound 81],–
< 1700,500 to 1100,O=C1CCC(N2Cc3ccc(COC(=O)NCc4ccccc4)cc3C2=O)C(=O)N1 (stereo not shown) [Compound 98],–
< 1100,–,CN1CCN(c2ccc(NC(=O)OCc3ccc4c(c3)C(=O)N(C3CCC(=O)NC3=O)C4)cn2)CC1 (stereo not shown) [Compound 82],–
< 1100,–,O=C1CCC(N2Cc3ccc(COC(=O)Nc4ccc(-c5ccccc5F)nc4)cc3C2=O)C(=O)N1 (stereo not shown) [Compound 84],–
< 1700,500 to 1100,COc1ccccc1-c1ccc(NC(=O)OCc2ccc3c(c2)C(=O)N(C2CCC(=O)NC2=O)C3)cn1 (stereo not shown) [Compound 87],–
< 1100,500 to 1100,"O=C1CCC(N2Cc3ccc(COC(=O)Nc4ccccc4)cc3C2=O)C(=O)N1 (stereo not shown) [Compound 138, (2-(2,6-dioxopiperidin-3-yl)-3-oxoisoindolin-5-yl)methyl phenylcarbamate]",–
< 1700,1100 to 1700,O=C1CCC(N2Cc3ccc(COC(=O)Nc4cc(CN5CCOCC5)cc(OC(F)F)c4)cc3C2=O)C(=O)N1 (stereo not shown) [Compound 95],–
< 1700,500 to 1100,O=C1CCC(N2Cc3ccc(COC(=O)Nc4cc(CN5CC6CC5CO6)cc(OC(F)F)c4)cc3C2=O)C(=O)N1 (stereo not shown) [Compound 100],–
< 1700,500 to 1100,CN(C)C1CN(c2ccc(NC(=O)OCc3ccc4c(c3)C(=O)N(C3CCC(=O)NC3=O)C4)cn2)C1 (stereo not shown) [Compound 89],–
< 1700,500 to 1100,CC1COc2cc(NC(=O)OCc3ccc4c(c3)C(=O)N(C3CCC(=O)NC3=O)C4)ccc21 (stereo not shown) [Compound 103],–
< 1100,–,"N#Cc1cc(Cl)cc(NC(=O)OCc2ccc3c(c2)C(=O)N(C2CCC(=O)NC2=O)C3)c1 (stereo not shown) [Compound 111, (2-(2,6-dioxopiperidin-3-yl)-3-oxoisoindolin-5-yl)methyl (3-chloro-5-cyanophenyl)carbamate]",–
< 1100,500 to 1100,"Cc1ccc(NC(=O)OCc2ccc3c(c2)C(=O)N(C2CCC(=O)NC2=O)C3)cc1F (stereo not shown) [Compound 133, (2-(2,6-dioxopiperidin-3-yl)-3-oxoisoindolin-5-yl)methyl (3-fluoro-4-methylphenyl)carbamate]",–
